The values that follow come from patent publication EP0502020B1, “NOVEL BENZO [b] PHENANTHROLINE-1,7 DERIVATIVES, AND THEIR PREPARATION AND THERAPEUTICAL APPLICATIONS” (PIERRE FABRE MEDICAMENT, priority 1989, dated 1991).

As usually defined, the IC50 is the concentration needed to halve the response being measured.

The test relates to leucémie murine L 1210. Description: Cytotoxic activity on murine leukaemia L 1210 cells in suspension culture, cell count after 48 h. It is filed as cell-based. Conditions: Mus musculus, L1210; concentration reducing growth by 50 % versus controls; 48 heures d'incubation; Coulter Counter; 37°C, 5 % CO₂. The protocol: L'activité cytotoxique a été evaluée sur le modèle de la leucémie murine L 1210 cultivée en suspension en milieu iquide à 37°C sous une atmosphère de 5 % CO₂.
Les cellules en phase exponentielle de croissance sont incubées en présence de concentrations croissantes des produits. Après 48 heures d'incubation, les cellules sont comptées (Coulter Counter) et l'effet cytotoxique est évalué par la détermination par régression linéaire de la concentration du produit ayant réduit de 50 % la croissance par rapport aux témoins (IC₅₀).
Molecule `CN1COCc2c1ccc1cc3ccc4ncccc4c3nc21` [Exemple 4, Dihydro-3,4 méthyl-4 1H-benzoxazino [3,1] [5,6-b] phénanthroline-1,7] returned an IC50 of 1300 nM.

`COCc1c(O)ccc2cc3ccc4ncccc4c3nc12` [Exemple 2, Hydroxy-10 méthoxyméthyl-11 benzo [b] phénanthroline-1,7] came in with an IC50 of 6500 nM.

`CNc1ccc2cc3ccc4ncccc4c3nc2c1CO` [Exemple 7, Hydroxyméthyl-11 méthylamino-10 benzo [b] phénanthroline-1,7] gave an IC50 of 170 nM.

Molecule `CNc1ccc2cc3ccc4ncccc4c3nc2c1COC` [Exemple 6, Méthoxyméthyl-11 méthylamino-10 benzo [b] phénanthroline-1,7] yielded an IC50 of 1100 nM.
